From US20220112217A1, “PYRAZOLOPYRIMIDINE DERIVATIVE AND USE THEREOF AS PI3K INHIBITOR” (MEDSHINE DISCOVERY INC., priority 2018, published 2022)

Key:
Jeko-1 cell = Jeko-1 cell test (IgM-stimulated, phosphorylated AKT readout); assay type: cell-based; details: Homo sapiens, 2 h compound, IgM stimulation 10 min, phospho-AKT
Description: (§1) 7) After incubation, readings at 620 and 665 nm on EnVingen were recorded. • <2> TMD-8 cell viability test • 1) Cell Culture

TMD-8 cell = TMD-8 cell viability test (CellTiter-Glo, 72 h); assay type: cell-based; details: Homo sapiens, TMD8
Description: as §1
Cells were regularly passaged. Cells at logarithmic growth phase were transferred to the plate. • 2) Plating • (1). Cells were stained with trypan blue and viable cells were counted. • (2). Cell concentration was adjusted to 7000 cells/well • (3). 90 μL of cell suspension was added to each well of the plate and cell-free medium was added to blank control wells. • (4). The plate was incubated overnight at 37° C., 5% CO2 and 100% relative humidity in an incubator. • 3) Preparation of Plate Containing Compound Stock
(1). Preparation of plate containing 400× compound stock: Compounds were diluted from the highest concentration gradient to lowest concentration with DMSO. • 4) Preparation of 10× compound working solution and treatment • (1). Preparation of 10× compound working solution: 78 μL of cell culture medium was added to a V-bottom 96-well plate, and 2 μL of compound stock solution was pipetted from the plate containing 400× compound stock into the cell cultures of 96-well plate. 2 μL of DMSO was added to the vehicle control wells and blank control wells. After compounds or DMSO was added, the mixture was well mixed by a pipette. • (2). 10 μL of DMSO-cell culture medium mixture solution was added to the vehicle control wells and blank control wells. The final concentration of DMSO was 0.25%. • (3). The 96-well cell plate was incubated in the incubator for another 72 h. • 5) CellTiter-Glo Luminescent Cell Viability Assay
The following procedure was performed according to the instructions of Promega CellTiter-Glo luminescent cell viability assay kit (Promega-G7573). • (1). CellTiter-Glo buffer was thawed and let stand at room temperature. • (2). The CellTiter-Glo substrate was let stand at room temperature. • (3). The CellTiter-Glo buffer was added to a flask of CellTiter-Glo substrate to dissolve the substrate, thereby preparing a CellTiter-Glo working solution. • (4). The solution was vortexed to completely dissolve the substrate. • (5). The plate was incubated at room temperature for 30 min for equilibration. • (6). 50 μL (equal to half the volume of cell culture medium in each well) of CellTiter-Glo working solution was added to each well. The plate was covered by aluminum foil to avoid light. • (7). The plate was shaken on an orbital shaker for 2 min to induce cell lysis. • (8). The plate was let stand at room temperature for 10 min to stabilize the luminescence signals. • (9). The luminescence signals were detected on 2104 EnVision plate reader.

[1] = Plasma protein binding rate, human; assay type: in vitro ADME; details: read-out: PPB % (plasma protein binding rate) (converted)
[2] = Plasma protein binding rate, mouse; assay type: in vitro ADME; details: read-out: PPB % (plasma protein binding rate) (converted)
[3] = In vivo DMPK study, single dose in female Balb/c mice; details: for half-life / clearance / Vd / bioavailability: female, Balb/c; for half-life / clearance / Vd / bioavailability / Cmax: mouse, plasma; for half-life: 1 mg/kg, note lists it as an intravenous parameter, read-out: T1/2 (half-life) (converted); for half-life / clearance / Vd / bioavailability / Oral DNAUC (dose-normalized area under curve): mice; for clearance / Vd: intravenous 1 mg/kg; for clearance: read-out: Cl (clearance); for Vd: read-out: Vd (apparent volume of distribution); for bioavailability: oral 3 mg/kg vs intravenous 1 mg/kg, read-out: F % (oral bioavailability); for Cmax: oral 3 mg/kg, female Balb/c mice
Description: Objective: To evaluate the plasma concentration of the compounds and pharmacokinetics after a single dose in female Balb/c mice.
Procedures: 8 healthy adult female Balb/c mice were randomized, 4 for intravenous administration and 4 for oral administration. The compounds were mixed with a proper amount of vehicle for intravenous injection (DMSO/PEG200/water (5:45:50 v/v/v)). The mixture was vortexed and treated with ultrasound to give a 1.0 mg/mL clear solution. The clear solution was filtered through a microporous membrane filter for later use. For the oral group, the vehicle was 0.5% MC/0.2% Tween 80. The compound was mixed with the vehicle, and the mixture was vortexed and ultrasonically treated to give 1.0 mg/mL uniform suspension for later use. The mice were administered intravenously at 1 mg/kg or orally at 3 mg/kg. Whole blood was collected at certain time points, and plasma was separated. The drug concentration was measured by LC-MS/MS, and pharmacokinetic parameters were calculated using
Phoenix WinNonlin software (Pharsight, USA).

[4] = tested on: human lymphoma TMD-8 subcutaneous xenograft tumors; experiment: In vivo efficacy study, TMD-8 subcutaneous xenograft in CB-17 SCID mice; parameters: species or system CB-17 SCID mouse
Description: In Vivo Efficacy Study • Objectives: To evaluate the efficacy of the compounds on human lymphoma TMD-8 subcutaneous xenograft tumors in a CB-17 SCID mouse model. • Procedures: • (1) Cell Culture • Human lymphoma TMD-8 cells (Shanghai Junrui-UFBN1682) were cultivated in an RPMI 1640 medium containing 10% fetal bovine serum, 100 U/mL penicillin and 100 μg/mL streptomycin through monolayer culture in vitro in an incubator at 37° C./5% CO2. The cells were digested with trypsin-EDTA twice a week for passaging as per conventional practice. When the saturation reached 80%-90%, the cells were collected, counted and grafted. • (2) Tumor Cell Grafting
0.2 mL (1×10^7 cells) of TMD-8 cells (along with matrigel in a volume ratio of 1:1) was subcutaneously grafted on the right back of each mouse, and the mice were randomized when the mean tumor volume was 99 mm^3. • (3) Preparation of Test Compound
Vehicle group: 0.5% MC/0.2% Tween 80/99.3% water.
Test compound group: A certain amount of the compound was dissolved in a corresponding volume of vehicle in a brown flask. The mixture was vortexed to give a uniform suspension or clear solution.
The experimental indices were to investigate whether tumor growth was inhibited or delayed or the tumor was cured. Tumor diameters were measured twice weekly using a vernier caliper. The tumor volume was calculated according to the following formula: V=0.5a x b^2, where a and b represent the long diameter and short diameter of the tumor, respectively.
The efficacy of compounds against tumor was evaluated by TGI (%). TGI (%) refers to the rate of tumor growth inhibition.

PI3K beta = PI3K beta (Homo sapiens, UniProt P42338); experiment: In vitro enzyme activity assay (ADP-Glo lipid kinase), PI3K beta
Chain of PI3K beta (P42338 whole entry): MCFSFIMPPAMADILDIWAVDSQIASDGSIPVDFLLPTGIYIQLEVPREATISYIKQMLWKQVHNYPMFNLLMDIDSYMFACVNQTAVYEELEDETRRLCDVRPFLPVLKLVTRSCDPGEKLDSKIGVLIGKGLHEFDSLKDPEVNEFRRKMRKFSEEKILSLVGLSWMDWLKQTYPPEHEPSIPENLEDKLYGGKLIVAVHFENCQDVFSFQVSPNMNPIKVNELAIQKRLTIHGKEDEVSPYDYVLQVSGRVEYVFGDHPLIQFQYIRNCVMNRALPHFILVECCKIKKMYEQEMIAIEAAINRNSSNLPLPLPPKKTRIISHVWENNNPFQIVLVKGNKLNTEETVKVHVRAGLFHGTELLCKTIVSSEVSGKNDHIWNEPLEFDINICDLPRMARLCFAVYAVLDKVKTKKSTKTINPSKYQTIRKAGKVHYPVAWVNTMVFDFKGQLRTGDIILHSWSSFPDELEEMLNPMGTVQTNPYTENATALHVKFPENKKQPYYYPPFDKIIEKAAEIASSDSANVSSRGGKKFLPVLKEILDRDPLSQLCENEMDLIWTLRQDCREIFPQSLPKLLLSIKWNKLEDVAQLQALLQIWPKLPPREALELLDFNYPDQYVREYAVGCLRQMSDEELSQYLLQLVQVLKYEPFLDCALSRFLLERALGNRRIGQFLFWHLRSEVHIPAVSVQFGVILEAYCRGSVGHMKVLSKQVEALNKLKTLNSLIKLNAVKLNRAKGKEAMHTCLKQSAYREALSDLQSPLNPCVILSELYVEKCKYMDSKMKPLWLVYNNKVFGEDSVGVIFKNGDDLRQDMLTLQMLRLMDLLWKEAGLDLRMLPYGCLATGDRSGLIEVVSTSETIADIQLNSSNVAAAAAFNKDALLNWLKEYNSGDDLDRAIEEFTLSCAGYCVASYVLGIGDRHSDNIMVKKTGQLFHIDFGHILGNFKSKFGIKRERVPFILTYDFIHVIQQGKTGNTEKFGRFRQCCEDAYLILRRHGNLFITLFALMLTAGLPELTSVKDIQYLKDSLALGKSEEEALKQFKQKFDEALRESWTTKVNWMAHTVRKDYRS
Chain of PI3K beta (P27986 whole entry partner): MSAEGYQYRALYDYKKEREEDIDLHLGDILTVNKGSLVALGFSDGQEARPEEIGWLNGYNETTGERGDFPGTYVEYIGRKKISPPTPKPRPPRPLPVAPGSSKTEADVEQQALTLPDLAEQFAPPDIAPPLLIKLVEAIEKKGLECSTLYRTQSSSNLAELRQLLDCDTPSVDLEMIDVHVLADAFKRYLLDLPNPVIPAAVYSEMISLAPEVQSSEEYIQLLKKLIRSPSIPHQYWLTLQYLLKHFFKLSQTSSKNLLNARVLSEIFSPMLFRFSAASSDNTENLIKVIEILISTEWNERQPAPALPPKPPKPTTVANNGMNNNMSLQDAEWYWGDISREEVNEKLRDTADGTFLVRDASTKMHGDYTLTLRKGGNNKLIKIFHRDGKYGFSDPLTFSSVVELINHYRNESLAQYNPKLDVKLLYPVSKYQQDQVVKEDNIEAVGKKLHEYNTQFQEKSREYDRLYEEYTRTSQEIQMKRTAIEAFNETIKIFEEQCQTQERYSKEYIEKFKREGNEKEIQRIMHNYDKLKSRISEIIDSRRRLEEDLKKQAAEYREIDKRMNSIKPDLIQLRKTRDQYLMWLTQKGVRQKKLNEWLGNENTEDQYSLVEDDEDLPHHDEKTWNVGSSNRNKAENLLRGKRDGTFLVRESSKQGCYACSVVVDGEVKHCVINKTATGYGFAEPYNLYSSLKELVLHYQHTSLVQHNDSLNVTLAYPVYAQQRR
Description: (§2) An appropriate substrate and ATP were incubated at a suitable condition for lipid kinase reaction, followed by a two-step detection of kinase activity using an ADP-Glo™ kit. Step I: The kinase reaction was terminated and residual ATP was completely removed, leaving ADP only; Step II: A kinase assay reagent was added to convert ADP to ATP by a luciferin/luciferase reaction. Finally, a fluorescence output value was detected and converted into kinase activity.
(§3) • 2) Kit: ADP-Glo™ lipid kinase and PIP2:3PS kit (Promega #V1792)
(§4) The mixture was incubated at 23° C. for 20 min • (10) 2 μL of ATP solution was added, and the mixture was centrifuged at 1000 rpm and was shaken to mix well • (11) The plate was covered, shaken for about 30 s, and incubated for 2 h at 23° C. • (12) 5 μL of ADP-Glo reagent containing 10 mM MgCl2 was added • (13) The mixture was centrifuged at 1000 rpm for 10 s, covered and shaken for about 30 s, and incubated at 23° C. for 60 min • (14) 10 μL of kinase assay reagent was added • (15) The mixture was centrifuged at 1000 rpm for 10 s, and incubated at 23° C. for 60 min • (16) Fluorescence values were measured by an Envision system. • 2. […] The mixture was incubated at 37° C./CO2 for 10 min. • 5) The compound was removed by pipette. Lysis buffer was added at 50 μL/well, and the cells wereincubated on a shaker for 30 min. • 6) After the cells were completely lysed, 16 μL of lysate was transferred to a 384-well plate and 4 μL of prepared AC+D2 in the kit was added. (AC: Eu3+-cryptate antibody binds to phosphorylated AKT, while D2 binds to non-phosphorylated AKT) The mixture was incubated at room temperature for 4 h.

PI3K alpha = PI3K alpha (Homo sapiens, UniProt P42336); experiment: In vitro enzyme activity assay (ADP-Glo lipid kinase), PI3K alpha
Chain of PI3K alpha (P42336 whole entry): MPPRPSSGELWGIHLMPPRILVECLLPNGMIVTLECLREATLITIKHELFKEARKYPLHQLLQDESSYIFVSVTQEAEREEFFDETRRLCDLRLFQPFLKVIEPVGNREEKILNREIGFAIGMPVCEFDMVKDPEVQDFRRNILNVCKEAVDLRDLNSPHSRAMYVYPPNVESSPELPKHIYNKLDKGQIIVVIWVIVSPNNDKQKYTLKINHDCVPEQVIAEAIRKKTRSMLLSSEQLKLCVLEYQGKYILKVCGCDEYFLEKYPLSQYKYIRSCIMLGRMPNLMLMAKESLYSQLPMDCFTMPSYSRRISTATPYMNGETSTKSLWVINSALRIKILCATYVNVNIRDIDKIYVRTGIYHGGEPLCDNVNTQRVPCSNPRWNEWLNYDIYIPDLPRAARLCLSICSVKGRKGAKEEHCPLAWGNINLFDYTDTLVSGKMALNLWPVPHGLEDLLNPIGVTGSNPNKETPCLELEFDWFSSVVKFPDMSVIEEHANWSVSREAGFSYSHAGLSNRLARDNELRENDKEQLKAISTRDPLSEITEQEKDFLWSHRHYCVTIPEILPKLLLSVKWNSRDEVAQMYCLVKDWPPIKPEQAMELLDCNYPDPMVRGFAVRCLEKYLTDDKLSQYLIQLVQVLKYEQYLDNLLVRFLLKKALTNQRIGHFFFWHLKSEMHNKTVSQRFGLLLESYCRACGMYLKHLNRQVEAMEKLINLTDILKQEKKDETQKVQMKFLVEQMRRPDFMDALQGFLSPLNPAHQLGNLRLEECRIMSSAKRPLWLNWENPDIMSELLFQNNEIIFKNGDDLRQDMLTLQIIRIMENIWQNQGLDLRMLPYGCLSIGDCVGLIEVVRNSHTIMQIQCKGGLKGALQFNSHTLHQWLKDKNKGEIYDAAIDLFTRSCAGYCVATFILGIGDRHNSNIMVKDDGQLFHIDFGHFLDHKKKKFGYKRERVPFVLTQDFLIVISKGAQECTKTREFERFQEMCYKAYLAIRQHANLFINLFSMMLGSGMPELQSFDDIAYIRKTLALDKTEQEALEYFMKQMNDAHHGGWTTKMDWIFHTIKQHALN
Chain of PI3K alpha (P27986 whole entry partner): as the sequence (P27986 whole entry partner) above
Description: as §2, §3, §4

PI3K gamma = PI3K gamma (Homo sapiens, UniProt P48736); experiment: In vitro enzyme activity assay (ADP-Glo lipid kinase), PI3K gamma; details: PI3Kγ IC50, ATP 25 μM, PIP2:3PS 50 μM, 120 min
Chain of PI3K gamma (P48736 whole entry): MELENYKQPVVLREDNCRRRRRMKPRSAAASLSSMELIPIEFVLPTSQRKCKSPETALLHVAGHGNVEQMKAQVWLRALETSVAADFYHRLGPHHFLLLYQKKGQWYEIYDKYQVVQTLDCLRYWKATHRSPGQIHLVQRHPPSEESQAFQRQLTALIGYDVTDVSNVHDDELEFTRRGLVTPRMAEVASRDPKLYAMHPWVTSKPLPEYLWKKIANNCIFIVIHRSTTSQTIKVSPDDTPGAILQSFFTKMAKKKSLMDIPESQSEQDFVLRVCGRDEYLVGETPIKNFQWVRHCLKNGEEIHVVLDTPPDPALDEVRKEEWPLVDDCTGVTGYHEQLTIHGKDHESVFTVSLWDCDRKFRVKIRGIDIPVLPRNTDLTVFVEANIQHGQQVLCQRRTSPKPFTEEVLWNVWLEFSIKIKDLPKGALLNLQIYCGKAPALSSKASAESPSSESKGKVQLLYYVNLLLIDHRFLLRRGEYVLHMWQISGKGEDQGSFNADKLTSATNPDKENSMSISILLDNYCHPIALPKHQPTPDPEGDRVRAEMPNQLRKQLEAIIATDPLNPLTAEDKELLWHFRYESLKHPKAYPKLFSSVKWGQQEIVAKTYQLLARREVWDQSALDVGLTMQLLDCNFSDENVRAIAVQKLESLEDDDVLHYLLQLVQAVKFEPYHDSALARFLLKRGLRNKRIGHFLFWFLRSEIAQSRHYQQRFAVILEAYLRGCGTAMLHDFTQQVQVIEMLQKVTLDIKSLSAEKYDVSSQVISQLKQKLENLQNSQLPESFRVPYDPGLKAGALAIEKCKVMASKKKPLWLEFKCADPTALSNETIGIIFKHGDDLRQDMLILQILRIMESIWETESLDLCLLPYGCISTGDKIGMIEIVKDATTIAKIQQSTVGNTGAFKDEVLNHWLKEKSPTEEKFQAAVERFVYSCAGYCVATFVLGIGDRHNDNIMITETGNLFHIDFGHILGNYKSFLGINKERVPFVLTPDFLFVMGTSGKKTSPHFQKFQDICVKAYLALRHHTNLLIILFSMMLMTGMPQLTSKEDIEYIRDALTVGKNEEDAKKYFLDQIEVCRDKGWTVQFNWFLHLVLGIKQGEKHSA
Description: as §2, §3, §4

PI3K delta = PI3K delta (Homo sapiens, UniProt O00329); experiment: In vitro enzyme activity assay (ADP-Glo lipid kinase), PI3K delta; details: PI3Kδ IC50, ATP 40 μM, PIP2:3PS 50 μM, 120 min;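 note: kinase reaction run at 23 °C, then leftover ATP depleted and the ADP formed turned back into ATP, with the luciferin/luciferase signal read as kinase activity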
Chain of PI3K delta (O00329 whole entry): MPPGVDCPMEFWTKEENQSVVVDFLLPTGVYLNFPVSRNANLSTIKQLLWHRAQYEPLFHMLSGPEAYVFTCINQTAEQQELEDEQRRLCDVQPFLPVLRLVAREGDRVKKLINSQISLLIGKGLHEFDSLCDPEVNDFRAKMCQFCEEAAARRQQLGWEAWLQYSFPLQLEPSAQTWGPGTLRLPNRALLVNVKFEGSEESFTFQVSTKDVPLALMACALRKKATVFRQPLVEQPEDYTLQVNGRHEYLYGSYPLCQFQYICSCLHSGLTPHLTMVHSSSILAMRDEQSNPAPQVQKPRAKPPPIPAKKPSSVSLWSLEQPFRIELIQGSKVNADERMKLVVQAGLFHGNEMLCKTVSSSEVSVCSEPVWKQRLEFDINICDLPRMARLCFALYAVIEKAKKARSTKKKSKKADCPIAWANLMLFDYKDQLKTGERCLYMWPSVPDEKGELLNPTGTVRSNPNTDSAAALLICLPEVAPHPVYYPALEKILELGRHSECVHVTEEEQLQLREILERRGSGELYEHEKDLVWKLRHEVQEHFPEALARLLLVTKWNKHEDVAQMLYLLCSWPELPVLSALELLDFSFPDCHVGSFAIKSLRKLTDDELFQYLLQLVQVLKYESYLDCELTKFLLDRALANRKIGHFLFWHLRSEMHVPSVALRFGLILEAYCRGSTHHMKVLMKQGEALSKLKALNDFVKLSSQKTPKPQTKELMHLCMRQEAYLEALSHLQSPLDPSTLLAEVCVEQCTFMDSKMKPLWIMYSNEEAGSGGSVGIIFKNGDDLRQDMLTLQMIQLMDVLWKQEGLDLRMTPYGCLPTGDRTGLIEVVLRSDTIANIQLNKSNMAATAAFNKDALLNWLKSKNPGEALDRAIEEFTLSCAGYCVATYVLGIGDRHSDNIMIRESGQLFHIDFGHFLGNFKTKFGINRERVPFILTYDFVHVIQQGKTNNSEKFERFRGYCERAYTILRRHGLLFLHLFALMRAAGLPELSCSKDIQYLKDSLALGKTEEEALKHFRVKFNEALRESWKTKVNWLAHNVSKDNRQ
Chain of PI3K delta (P27986 whole entry partner): as the sequence (P27986 whole entry partner) above
Description: as §2, §3
The kit comprises: 1 mM PIP2:3PS, 10× lipid dilution buffer, 1 M magnesium chloride, 10 mM ATP, 10 mM ADP, ADP-Glo reagent, detection buffer and substrate. • 3) Plate: OptiPlate-384, white and transparent (PerkinElmer #6007299) Reagent preparation: • 1) 10x reaction buffer: 500 mM HEPES (4-(2-hydroxyethyl)-1-piperazineethanesulfonic acid), pH 7.5, 500 mM NaCl, 9 mM MgCl2; BSA: 10% stock solution, prepared in-house • 2) Condition for final test system: 1× reaction system: 50 mM HEPES, 50 mM NaCl, 3 mM MgCl2, 0.01% BSA (prepared on the day of experiment), 1% DMSO (v/v) +/−compound • 3) Reaction system: 3 μL of enzyme and substrate mixture (1:1) +2 μL of ATP/MgCl2 mixture +5 μL of ADP-Glo reagent +10 μL detection reagent.
The specific experimental procedures are as follows: • 1) Dilution: 50 nL of 100× compound/DMSO solution were transferred into a test plate using Echo • For PI3Kα, the compound was serially diluted by three fold from the highest concentration 0.111 mM to the 10th concentration. • For PI3Kβ/PI3Kδ/PI3Kγ, the compound was serially diluted by three fold from the highest concentration of 1.11 mM to the 10th concentration. • 2) Kinase reaction: • (1) The target compounds were prepared. 50 nL of 100× compound solution or DMSO was added to the corresponding plate • (2) A 3.33 × reaction buffer was prepared • (3) A 3.33× PIP2:3PS solution were prepared; the PIP2:3PS solution should be thawed by vortex for at least 1 min before use • (4) An ATP solution containing 5.25 mM MgCl2 was prepared • (5) 3.33× PI3Kα/PI3Kβ/PI3Kδ/PI3Kγ solutions were prepared • (6) The lipid kinase solution and PIP2:3PS solution were mixed at a volume ratio of 1:1 • (7) The 3.33 × lipid kinase buffer and PIP2:3PS solution were mixed at a volume ratio of 1:1 • (8) 3 μL of the mixed solution of reaction buffer and PIP2:3PS was added to Columns 1 and 2 of the plate • (9) 3 μL of the mixed solution of the enzyme and PIP2:3PS was added to the wells of the plate other than Columns 1 and 2, and was centrifuged for 10 s (1000 rpm). The mixture was incubated at 23° C. for 20 min • (10) 2 μL of ATP solution was added, and the mixture was centrifuged at 1000 rpm and was shaken to mix well • (11) The plate was covered, shaken for about 30 s, and incubated for 2 h at 23° C. • (12) 5 μL of ADP-Glo reagent containing 10 mM MgCl2 was added • (13) The mixture was centrifuged at 1000 rpm for 10 s, covered and shaken for about 30 s, and incubated at 23° C. for 60 min • (14) 10 μL of kinase assay reagent was added • (15) The mixture was centrifuged at 1000 rpm for 10 s, and incubated at 23° C. for 60 min • (16) Fluorescence values were measured by an Envision system. • 2.

[5] = In vivo DMPK study, single dose in female Balb/c mice; details: mouse, plasma, po, 1 mg/kg, (1 mpk)
[6] = 100 mg/kg(D0-D21) combined with ACP-196 75 mg/kg(D0-D21)
[7] = 50 mg/kg(D0-D20) combined with ACP-196 50 mg/kg(D0-D17) + 25 mg/kg(D18-D20)

IC50 (Jeko-1 cell) | fraction unbound [1] | fraction unbound [2] | half-life [3] | clearance [3] | Vd [3] | bioavailability [3] | Cmax [3] | Oral DNAUC (dose-normalized area under curve) [3] | IC50 (PI3K beta) | IC50 (PI3K alpha) | IC50 (PI3K gamma) | IC50 (PI3K delta) | Cmax [5] | Structure (SMILES) | IC50 (TMD-8 cell) | TGI [4, 6] | TGI ([4]; 25 mg/kg(D0-D20) combined with ACP-196 50 mg/kg(D0-D17) + 25 mg/kg(D18-D20)) | TGI [4, 7] | TGI ([4]; 75 mg/kg(D0-D20) combined with ACP-196 50 mg/kg(D0-D17) + 25 mg/kg(D18-D20))
 | 0.263 | 0.146 | 1.99 h |  |  |  | 5260 nM | 2406 nM · h/mpk |  |  | 2220 nM | 33.5 nM |  | COCc1ncc(-c2nn(C(C)c3nc4ccc(F)cn4c(=O)c3-c3cccc(F)c3)c3ncnc(N)c23)s1 (stereo not drawn) [WX026] |  |  |  |  | 
828 nM |  |  |  |  |  |  |  |  | > 10000 nM | > 10000 nM | 8060 nM | 120 nM |  | COc1ncc(-c2nn(C(C)c3nc4ccc(F)cn4c(=O)c3-c3cccc(F)c3)c3ncnc(N)c23)cc1C#N (single isomer, unassigned) [WX005] |  |  |  |  | 
 |  |  | 1.76 h | 14.2 mL/min/kg | 1.28 L/kg | 83.8% |  | 1825 nM · h/mpk |  |  | 2440 nM | 39.9 nM | 1400 nM | CC(C)n1cc(-c2nn(C(C)c3nc4ccc(F)cn4c(=O)c3-c3cccc(F)c3)c3ncnc(N)c23)cn1 (stereo not drawn) [WX038] | 2320 nM |  |  |  | 
614 nM | 0.034 | 0.023 | 4.8 h | 4.44 mL/min/kg | 2.02 L/kg | 101% | 1610 nM | 7179 nM · h/mpk | > 10000 nM | > 10000 nM | 472 nM | 397 nM |  | CC(C)Oc1ccc(-c2nn(C(C)c3nc4ccc(F)cn4c(=O)c3-c3cccc(F)c3)c3ncnc(N)c23)cc1F (single isomer, unassigned) [WX001] | 2970 nM | 103.95% | 108.10% | 108.14% | 108.10%
1320 nM |  |  |  |  |  |  |  |  | > 10000 nM | > 10000 nM | 1220 nM | 257 nM |  | CC(C)Oc1ccc(-c2nn(C(C)c3nc4ccc(F)cn4c(=O)c3-c3cccc(F)c3)c3ncnc(N)c23)cn1 (single isomer, unassigned) [WX004] |  |  |  |  | 
125 nM | 0.217 | 0.086 | 0.644 h | 36.7 mL/min/kg | 1.75 L/kg | 84.7% | 1590 nM | 674.0 nM · h/mpk |  |  | 188 nM | 1.88 nM |  | COc1ncc(-c2nn(C(C)c3nc4ccc(F)cn4c(=O)c3-c3cccc(F)c3)c3ncnc(N)c23)s1 (single isomer, unassigned) [WX007] | 589 nM | 103.16% |  |  | 
 |  |  | 3.15 h | 5.54 mL/min/kg | 1.43 L/kg | 49.3% | 2620 nM | 2583 nM · h/mpk |  |  | 3590 nM | 46.9 nM |  | COc1ncc(-c2nn(C(C)c3nc4ccc(F)cn4c(=O)c3-c3cccc(F)c3)c3ncnc(N)c23)cn1 (stereo not drawn) [WX042] | 2790 nM |  |  | 108.01% | 
580 nM | 0.256 | 0.192 |  |  |  |  | 3180 nM | 2820 nM · h/mpk | > 10000 nM | > 10000 nM | 2050 nM | 54.3 nM |  | COc1ccc(-c2nn(C(C)c3nc4ccc(F)cn4c(=O)c3-c3cccc(F)c3)c3ncnc(N)c23)cn1 (single isomer, unassigned) [WX012] |  |  |  |  | 

Structure (SMILES) | IC50 (Jeko-1 cell) | fraction unbound [1] | fraction unbound [2] | half-life [3] | clearance [3] | Vd [3] | bioavailability [3] | Cmax [3] | Oral DNAUC (dose-normalized area under curve) [3] | IC50 (PI3K beta) | IC50 (PI3K alpha) | IC50 (PI3K gamma) | IC50 (PI3K delta) | Cmax [5] | IC50 (TMD-8 cell) | TGI [4, 6] | TGI ([4]; 25 mg/kg(D0-D20) combined with ACP-196 50 mg/kg(D0-D17) + 25 mg/kg(D18-D20)) | TGI [4, 7] | TGI ([4]; 75 mg/kg(D0-D20) combined with ACP-196 50 mg/kg(D0-D17) + 25 mg/kg(D18-D20))
CC(C)Oc1ccc(-c2nn([C@@H](C)c3oc4ccc(F)cc4c(=O)c3-c3cccc(F)c3)c3ncnc(N)c23)cc1F [TGR-1202, reference compound] | 478 nM | 0.003 | 0.003 | 5.66 h | 8.54 mL/min/kg | 4.2 L/kg | 91.7% | 651 nM | 3043 nM · h/mpk | > 10000 nM | > 10000 nM | 818 nM |  |  | 4050 nM | 103.25% |  |  | 
